{"source": "patent US12729377B2", "about": "“RNAi agents and compositions for inhibiting expression of angiopoietin-like 3 (ANGPTL3), and methods of use” (Arrowhead Pharmaceuticals, Inc., priority 2017, dated 2026)", "key": {"ANGPTL3 gene [1]": {"test_system": "ANGPTL3 gene", "experiment": "Example 6: serum total cholesterol in mice", "assay_type": "in vivo, C57bl/6 mice", "procedure": "(§1) To assess the in vivo activity of additional ANGPTL3 RNAi agents that are designed to target position 304 on the ANGPTL3 gene, six- to eight-week-old female C57bl/6 mice were used. Pre-dose serum samples were taken at day −1 after a four hour fast. At day 1, each mouse was given a single subcutaneous administration of 200 μl containing 0.5 mg/kg (mpk) of an ANGPTL3 RNAi agent in D5W (dextrose in 5% water), or control (D5W) with no RNAi agent, according to the dosing groups recited in Table 25.\n(§2) Each of the RNAi agents included a modified sequence and an N-acetyl-galactosamine-containing targeting ligand conjugated to the 5′ terminal end of the sense strand. (See Tables 3, 4, and 5 for modified sequences and targeting ligand structures). The injections were performed between the skin and muscle (i.e. subcutaneous injections) into the loose skin over the neck and shoulder area. Three (3) mice in each group were tested (n=3). Serum was collected on days 8, 15, 22, 30, and on day 43 for certain groups (i.e., Groups 1, 2, 5, and 10 only). Mice were fasted for four hours prior to each collection. ANGPTL3 protein levels in serum were measured by ELISA assay (R&D Systems), according to the manufacturer's recommendations. Triglycerides, total cholesterol, high-density lipoprotein (HDL), and low-density lipoprotein (LDL) in serum were measured on a Cobas® Integra 400 (Roche Diagnostics), according to the manufacturer's recommendations.\n(§3) The ANGPTL3 protein levels, triglyceride levels, total cholesterol levels, HDL levels, and LDL levels for each animal were normalized. For normalization, the level of ANGPTL3 protein, triglyceride, HDL, and total cholesterol, respectively, for each animal at a time point, was divided by the pre-treatment level of expression in that animal (in this case at day −1) to determine the ratio of expression “normalized to pre-treatment.” Expression at a specific time point was then normalized to the D5W control group by dividing the “normalized to pre-treatment” ratio for an individual animal by the mean “normalized to pretreatment” ratio of all mice in the D5W control group."}, "ANGPTL3 protein": {"test_system": "ANGPTL3 protein", "experiment": "Example 14: RNAi agent and statin, serum ANGPTL3 protein by ELISA in LDLR knockout mice", "assay_type": "in vivo, LDLR KO mice", "from_the_text": "To evaluate the effect of co-administration of RNAi agents and statins in a disease model, LDLR KO mice were commercially obtained (The Jackson Laboratory). For three weeks prior to the onset of the study, forty-one (41) male 7 to 8 week old LDLR KO mice were placed on a high fat (“western”) diet (Teklad Custom Diets TD.88137), and remained on that diet throughout the duration of the study. Pre-dose serum samples were taken on study Day 1 after a four hour fast. The dosing regimen for the study is recited in the following Table 72:\n• Mice were treated at 40 mg/kg for the first 11 days, then switched to 20 mg/kg thereafter.\nThe vehicle used for the oral gavage in the study was a 1:1 mixture of Ora-Plus®: Ora-Sweet® solution, which were acquired commercially. For the preparation of the atorvastatin oral gavage administrations, the respective desired dose of atorvastatin was first dissolved in sterile water (0.3 mL water per 1 mL of desired formulation) and vortexed until smooth, followed by the addition of a mixture of 1:1 Ora-Plus®: Ora-Sweet® solution (0.7 mL vehicle per 1 mL of desired formulation) and vortexed. On day 1 and for each day thereafter an oral gavage dose was administered for each of the Groups except for Group 2. On Day 23, Groups 1, 2, 3, and 4 received a single subcutaneous administration of 2.5 mg/kg dose ([…] solution) of an ANGPTL3 RNAi agent in D5W (dextrose in 5% water), or vehicle control (D5W) with no RNAi agent.\nThe RNAi agent tested (AD05488) included a modified sequence and an N-acetyl-galactosamine-containing targeting ligand conjugated to the 5′ terminal end of the sense strand. (See Tables 3, 4, and 5 for modified sequences and targeting ligand structures). The injections were performed between the skin and muscle (i.e. subcutaneous injections) into the loose skin over the neck and shoulder area. Serum was collected on days 8, 15, 22 (pre-RNAi agent injection), 29, 36, 43, and 50. LDLR KO mice were fasted for four hours prior to each collection.\nANGPTL3 protein levels in serum were measured by ELISA assay (R&D Systems), according to the manufacturer's recommendations. Among other biomarkers, triglycerides, total cholesterol, and low-density lipoprotein (LDL) in serum were measured on a Cobas® Integra 400 (Roche Diagnostics), according to the manufacturer's recommendations.\nThe ANGPTL3 protein levels, triglyceride levels, total cholesterol levels, HDL levels, and LDL levels for each animal were normalized. For normalization, respective levels of ANGPTL3 protein, TG, total cholesterol, or LDL for each animal at a time point was divided by the pre-treatment level of expression in that animal (in this case pre-dose levels on Day 1) to determine the ratio of expression “normalized to pre-treatment.” Data from the study set forth in this Example are shown in the following Tables 73-76: […]"}, "ANGPTL3 gene [2]": {"test_system": "ANGPTL3 gene", "experiment": "Example 6: serum HDL in mice", "assay_type": "in vivo, C57bl/6 mice", "procedure": "as §1, §2, §3"}, "ANGPTL3 gene [3]": {"test_system": "ANGPTL3 gene", "experiment": "Example 6: serum triglycerides in mice", "assay_type": "in vivo, C57bl/6 mice", "procedure": "as §1, §2, §3"}, "[4]": {"settings": "Day 8, 0.5 mg/kg single SC injection on day 1, n=3"}, "[5]": {"settings": "Day 15, 0.5 mg/kg single SC injection on day 1, n=3"}, "[6]": {"settings": "Day 22, 0.5 mg/kg single SC injection on day 1, n=3"}, "[7]": {"settings": "Day 30, 0.5 mg/kg single SC injection on day 1, n=3"}, "[8]": {"settings": "Day 43, 0.5 mg/kg single SC injection on day 1, n=3"}}, "note": "In the oligonucleotide strings, read from the 5' end, every base follows the letter of its sugar. An asterisk marks phosphorothioate; unmarked linkages are phosphodiester. Other units and linkages are bracketed, terminal groups are in braces. A string of capitals states the bases alone. {NAG37} = tridentate N-acetyl-galactosamine targeting ligand, structure (NAG37)s; [invAb] = inverted abasic unit; m = 2'-O-methyl; f = 2'-fluoro", "data": [{"substance": "AD05488: RNAi agent duplex: antisense AM07235-AS, sense AM07234-SS (antisense mU*fA*mC*fUmGfAmUfCmAfAmAfUmAfUmGfUmUfGmAfG*mC; sense {NAG37}*[invAb]*mGmCmUmCmAmAmCmAfUfAfUmUmUmGmAmUmCmAmGmUmA*[invAb])", "values": [{"measurement": "Avg Chol (total cholesterol), normalized to pre-treatment and control", "setting": "ANGPTL3 gene [1]; [4]", "value": 0.782}, {"measurement": "Avg Chol (total cholesterol), normalized to pre-treatment and control", "setting": "ANGPTL3 gene [1]; [5]", "value": 0.768}, {"measurement": "Avg Chol (total cholesterol), normalized to pre-treatment and control", "setting": "ANGPTL3 gene [1]; [6]", "value": 0.801}, {"measurement": "Avg Chol (total cholesterol), normalized to pre-treatment and control", "setting": "ANGPTL3 gene [1]; [7]", "value": 0.961}, {"measurement": "Avg Chol (total cholesterol), normalized to pre-treatment and control", "setting": "ANGPTL3 gene [1]; [8]", "value": 1.037}, {"measurement": "Avg ANGPTL3 normalized to pre-treatment", "setting": "ANGPTL3 protein; Group 2: no gavage, 2.5 mg/kg AD05488 SC on day 23, Day 8 (pre-RNAi agent injection)", "value": 1.419}, {"measurement": "Avg ANGPTL3 normalized to pre-treatment", "setting": "ANGPTL3 protein; Group 2: no gavage, 2.5 mg/kg AD05488 SC on day 23, Day 15 (pre-RNAi agent injection)", "value": 1.584}, {"measurement": "Avg ANGPTL3 normalized to pre-treatment", "setting": "ANGPTL3 protein; Group 2: no gavage, 2.5 mg/kg AD05488 SC on day 23, Day 22 (pre-RNAi agent injection)", "value": 1.658}, {"measurement": "Avg ANGPTL3 normalized to pre-treatment", "setting": "ANGPTL3 protein; Group 2: no gavage, 2.5 mg/kg AD05488 SC on day 23, Day 29", "value": 0.023}, {"measurement": "Avg ANGPTL3 normalized to pre-treatment", "setting": "ANGPTL3 protein; Group 2: no gavage, 2.5 mg/kg AD05488 SC on day 23, Day 36", "value": 0.012}, {"measurement": "Avg ANGPTL3 normalized to pre-treatment", "setting": "ANGPTL3 protein; Group 2: no gavage, 2.5 mg/kg AD05488 SC on day 23, Day 43", "value": 0.020}, {"measurement": "Avg ANGPTL3 normalized to pre-treatment", "setting": "ANGPTL3 protein; Group 2: no gavage, 2.5 mg/kg AD05488 SC on day 23, Day 50", "value": 0.026}, {"measurement": "Avg ANGPTL3 normalized to pre-treatment", "setting": "ANGPTL3 protein; Group 3: 10 mg/kg daily oral gavage atorvastatin, 2.5 mg/kg AD05488 on day 23, Day 8 (pre-RNAi agent injection)", "value": 1.597}, {"measurement": "Avg ANGPTL3 normalized to pre-treatment", "setting": "ANGPTL3 protein; Group 3: 10 mg/kg daily oral gavage atorvastatin, 2.5 mg/kg AD05488 on day 23, Day 15 (pre-RNAi agent injection)", "value": 1.765}, {"measurement": "Avg ANGPTL3 normalized to pre-treatment", "setting": "ANGPTL3 protein; Group 3: 10 mg/kg daily oral gavage atorvastatin, 2.5 mg/kg AD05488 on day 23, Day 22 (pre-RNAi agent injection)", "value": 1.681}, {"measurement": "Avg ANGPTL3 normalized to pre-treatment", "setting": "ANGPTL3 protein; Group 3: 10 mg/kg daily oral gavage atorvastatin, 2.5 mg/kg AD05488 on day 23, Day 29", "value": 0.015}, {"measurement": "Avg ANGPTL3 normalized to pre-treatment", "setting": "ANGPTL3 protein; Group 3: 10 mg/kg daily oral gavage atorvastatin, 2.5 mg/kg AD05488 on day 23, Day 36", "value": 0.005}, {"measurement": "Avg ANGPTL3 normalized to pre-treatment", "setting": "ANGPTL3 protein; Group 3: 10 mg/kg daily oral gavage atorvastatin, 2.5 mg/kg AD05488 on day 23, Day 43", "value": 0.007}, {"measurement": "Avg ANGPTL3 normalized to pre-treatment", "setting": "ANGPTL3 protein; Group 3: 10 mg/kg daily oral gavage atorvastatin, 2.5 mg/kg AD05488 on day 23, Day 50", "value": 0.010}, {"measurement": "Avg ANGPTL3 normalized to pre-treatment", "setting": "ANGPTL3 protein; Group 4: 20 mg/kg* daily oral gavage atorvastatin (40 mg/kg first 11 days), 2.5 mg/kg AD05488 on day 23, Day 8 (pre-RNAi agent injection)", "value": 1.683}, {"measurement": "Avg ANGPTL3 normalized to pre-treatment", "setting": "ANGPTL3 protein; Group 4: 20 mg/kg* daily oral gavage atorvastatin (40 mg/kg first 11 days), 2.5 mg/kg AD05488 on day 23, Day 15 (pre-RNAi agent injection)", "value": 1.999}, {"measurement": "Avg ANGPTL3 normalized to pre-treatment", "setting": "ANGPTL3 protein; Group 4: 20 mg/kg* daily oral gavage atorvastatin (40 mg/kg first 11 days), 2.5 mg/kg AD05488 on day 23, Day 22 (pre-RNAi agent injection)", "value": 1.675}, {"measurement": "Avg ANGPTL3 normalized to pre-treatment", "setting": "ANGPTL3 protein; Group 4: 20 mg/kg* daily oral gavage atorvastatin (40 mg/kg first 11 days), 2.5 mg/kg AD05488 on day 23, Day 29", "value": 0.022}, {"measurement": "Avg ANGPTL3 normalized to pre-treatment", "setting": "ANGPTL3 protein; Group 4: 20 mg/kg* daily oral gavage atorvastatin (40 mg/kg first 11 days), 2.5 mg/kg AD05488 on day 23, Day 36", "value": 0.004}, {"measurement": "Avg ANGPTL3 normalized to pre-treatment", "setting": "ANGPTL3 protein; Group 4: 20 mg/kg* daily oral gavage atorvastatin (40 mg/kg first 11 days), 2.5 mg/kg AD05488 on day 23, Day 43", "value": 0.005}, {"measurement": "Avg ANGPTL3 normalized to pre-treatment", "setting": "ANGPTL3 protein; Group 4: 20 mg/kg* daily oral gavage atorvastatin (40 mg/kg first 11 days), 2.5 mg/kg AD05488 on day 23, Day 50", "value": 0.010}, {"measurement": "reduction in ANGPTL3 protein levels", "setting": "ANGPTL3 protein; single 2.5 mg/kg subcutaneous on Day 23, LDLR KO mice on high fat diet", "value": "clear reduction"}, {"measurement": "Avg HDL, normalized to pre-treatment and control", "setting": "ANGPTL3 gene [2]; [4]", "value": 0.783}, {"measurement": "Avg HDL, normalized to pre-treatment and control", "setting": "ANGPTL3 gene [2]; [5]", "value": 0.763}, {"measurement": "Avg HDL, normalized to pre-treatment and control", "setting": "ANGPTL3 gene [2]; [6]", "value": 0.793}, {"measurement": "Avg HDL, normalized to pre-treatment and control", "setting": "ANGPTL3 gene [2]; [7]", "value": 0.956}, {"measurement": "Avg HDL, normalized to pre-treatment and control", "setting": "ANGPTL3 gene [2]; [8]", "value": 1.088}, {"measurement": "Avg TG, normalized to pre-treatment and control", "setting": "ANGPTL3 gene [3]; [4]", "value": 0.568}, {"measurement": "Avg TG, normalized to pre-treatment and control", "setting": "ANGPTL3 gene [3]; [5]", "value": 0.637}, {"measurement": "Avg TG, normalized to pre-treatment and control", "setting": "ANGPTL3 gene [3]; [6]", "value": 0.484}, {"measurement": "Avg TG, normalized to pre-treatment and control", "setting": "ANGPTL3 gene [3]; [7]", "value": 0.652}, {"measurement": "Avg TG, normalized to pre-treatment and control", "setting": "ANGPTL3 gene [3]; [8]", "value": 0.689}]}]}
